Key:
[1] = tested on: PDL-1; test: PDL-1 Western blot, M21 melanoma cells attached to αvβ3 ligands; format: cell-based, human; conditions: immobilized epitope vs uncoated wells; 15 minute incubation; FIG. 15
Method: FIGS. 14A and 14B are blots of integrin αvβ3 expressing melanoma cells (M21 and CLL-49) and FIG. 14C is a blot depicting that endothelial cells (HUVEC) were allowed to attach to well coated with either a non-αvβ3 binding ligand (native collagen-IV) or an αvβ3 binding ligand (denatured collagen-IV). Whole cell lysates were prepared and the relative levels of PDL-1 or loading control β-actin were assessed by Western blot.
Integrin αvβ3 expressing melanoma cells (M21) were seeded on control uncoated wells or wells immobilized with the XL313 cryptic collagen epitope (RGDKGE (SEQ ID NO. 1)). Following a 15 minute incubation cell lysates were prepared. The relative levels of PDL-1 or loading control β-actin were assessed by Western blot.
Integrin αvβ3 expressing melanoma cells M21 (FIG. 14A) and CCL-49 (FIG. 14B) and endothelial cells (HUVEC) (FIG. 14C) were attached to wells coated with either a non-αvβ3 binding ligand (native collagen-IV) or an αvβ3 binding ligand (denatured collagen-IV). Whole cell lysates were prepared and the relative levels of PDL-1 or β-actin loading control were assessed.
Integrin αvβ3 expressing melanoma cells (M21) were seeded onto control uncoated wells or wells immobilized with the XL313 cryptic collagen epitope (RGDKGE (SEQ ID NO. 1)) (FIG. 15). Following an incubation period, cell lysates were prepared and relative levels of PDL-1 were assessed.

[2] = tested on: chick chorioallantoic membrane (CAM); test: Chick CAM inflammation assay, FGF-2 induced, antibody treatment; format: in vivo; conditions: FGF-2 stimulation in the absence of cortisone acetate; FIG. 3E
Method: The chick chorioallantoic membrane (CAM) assays were carried out with some modifications (19). For all experiments CAMs of 10-day-old chick embryos obtained from Charles River (North Franklin, CT) were separated from the shell membrane. Filter discs either non-treated (inflammation assays) pretreated (angiogenesis assays) with cortisone acetate (3.0 mg/ml) containing RPMI only or FGF-2 (40 ng). CAMs were either non-treated or treated topically with Mab XL313, XL166 or a non-specific control antibody (10 μg/embryo every 24 h for three consecutive treatments). […] At the end of the incubation period the embryos were sacrificed and the CAM tissues were analyzed. Angiogenesis was quantified by counting the number of angiogenic branching blood vessels within the area of the filter disc. The angiogenic index was determined by subtracting the mean number of blood vessel branch points from untreated CAMs from each experimental condition. […]
The chick CAM has been routinely used to assess inflammation and granulation tissue formation, which are largely dependent on infiltration of chick heterophils (the avian equivalent of neutrophils), macrophages and activated fibroblasts (36,37). To study the potential differential biological impact of RGD epitopes, FGF-2 induced inflammation was examined by carrying out similar experiments in the absence of cortisone acetate and quantifying CAM thickening. […]

[3] = tested on: chick embryos; test: Circulating Mab XL313 reactive epitope in chick embryo serum, solid-phase ELISA; format: in vivo; conditions: serum collected three days after FGF-2 stimulation, FIG. 5A
Method: Due to the differential expression and bio-distribution of the RGDKGE (SEQ ID NO. 1) epitope in angiogenic CAM tissues and its expression in macrophage-conditioned medium, it was determined whether a soluble circulating form of this RGDKGE (SEQ ID NO. 1) epitope could be generated. To examine this possibility, chick embryos were either un-treated or stimulated with FGF-2 and serum, and collected three days later. […] In contrast, a (P<0.05) 2-fold increase was detected in the levels of circulating XL313 epitope following FGF-2 stimulation. These findings indicated the differential release of a soluble form of this RGDKGE (SEQ ID NO. 1) containing collagen epitope.

[4] = tested on: chick chorioallantoic membrane (CAM); test: Macrophage infiltration of FGF-2 stimulated CAMs (KUL1 staining); format: in vivo; conditions: FGF-2 stimulation, no cortisone acetate; FIG. 3D
Method: The chick chorioallantoic membrane (CAM) assays were carried out with some modifications (19). For all experiments CAMs of 10-day-old chick embryos obtained from Charles River (North Franklin, CT) were separated from the shell membrane. Filter discs either non-treated (inflammation assays) pretreated (angiogenesis assays) with cortisone acetate (3.0 mg/ml) containing RPMI only or FGF-2 (40 ng). CAMs were either non-treated or treated topically with Mab XL313, XL166 or a non-specific control antibody (10 μg/embryo every 24 h for three consecutive treatments). For peptide induction experiments, CAMs were stimulated with 100 ng/ml of the RGD peptides (P-1, P-2, P-C) in the presence or absence of the P38MAPK inhibitor, SB202190 (10 μM). At the end of the incubation period the embryos were sacrificed and the CAM tissues were analyzed. Angiogenesis was quantified by counting the number of angiogenic branching blood vessels within the area of the filter disc. The angiogenic index was determined by subtracting the mean number of blood vessel branch points from untreated CAMs from each experimental condition. […]
CAMs examined for accumulation of granulation tissue were harvested, fixed in 4% PFA and paraffin embedded and sectioned (4 μm) and stained with Giemsa. CAM tissues analyzed via immunofluorescence were harvested, embedded with OCT, snap frozen and sectioned (4 μM). […]

[5] = tested on: chick chorioallantoic membrane (CAM); test: Chick CAM inflammation assay, induction by RGD collagen peptides; format: in vivo; conditions: FGF-2, absence of cortisone acetate; FIG. 5D
Method: The chick chorioallantoic membrane (CAM) assays were carried out with some modifications (19). For all experiments CAMs of 10-day-old chick embryos obtained from Charles River (North Franklin, CT) were separated from the shell membrane. Filter discs either non-treated (inflammation assays) pretreated (angiogenesis assays) with cortisone acetate (3.0 mg/ml) containing RPMI only or FGF-2 (40 ng). CAMs were either non-treated or treated topically with Mab XL313, XL166 or a non-specific control antibody (10 μg/embryo every 24 h for three consecutive treatments). […] At the end of the incubation period the embryos were sacrificed and the CAM tissues were analyzed. Angiogenesis was quantified by counting the number of angiogenic branching blood vessels within the area of the filter disc. The angiogenic index was determined by subtracting the mean number of blood vessel branch points from untreated CAMs from each experimental condition. Eight to twelve embryos were used per condition and experiments were repeated at least three times.
The effects of the soluble RGD containing collagen peptides on inflammation were examined.

| Substance | levels of PDL-1 protein in M21 melanoma cells on immobilized epitope [1] | CAMs showing robust formation of thick granulation tissue [2] | increase in levels of circulating XL313 epitope in serum [3] [fold] | macrophage infiltration of the CAMs, enhancement as compared to control [4] | CAMs exhibiting extensive tissue thickening [5] |
| --- | --- | --- | --- | --- | --- |
| RGDKGE (immobilized on wells) [XL313 epitope, αvβ3 ligand] | enhanced levels of PDL-1 protein | – | – | – | – |
| FGF-2: Fibroblast growth factor-2 from R&D Systems, stimulus of CAM angiogenesis and inflammation | – | approximately 50% | 2 | over 2 fold | 55%-60% |
